30 compounds from patent US20240002391A1, “4-ALKOXYPYRROLO[2,1-F][1,2,4]TRIAZINES AND PREPARATION AND USES THEREOF” (BioSplice Therapeutics, Inc., priority 2022, published 2024) can be followed below.

The structures appear in SMILES notation.

This test addresses recombinant DYRK1A kinase (Homo sapiens (Human), UniProt Q13627). The test is described as follows: DYRK1A kinase assay (Ser/Thr 18 peptide Z-lyte FRET). The format is biochemical. As to conditions: DYRK1A kinase activity, Z-lyte Ser/Thr 18 peptide, 15 μM ATP; method text calls the value IC50; read-out: EC50 (the source's name). A digest of the protocol: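 Recombinant enzyme (0.25 μg/mL final) was incubated with 15 μM ATP, 4 μM Ser/Thr 18 peptide and compound (11-point 1:3 series from 10 μM) for 1 h at room temperature, in duplicate. Development reagent was added for 1 h, and coumarin/fluorescein emission ratio gave % phosphorylation; IC50 by non-linear regression.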
`COc1nc(N[C@@H]2CCN(C3COC3)CC2(F)F)nn2ccc(-c3ccc4nnn(CC(F)(F)F)c4c3)c12` [Compound 922, (R)—N-(3,3-Difluoro-1-(oxetan-3-yl)piperidin-4-yl)-4-methoxy-5-(1-(2,2,2-trifluoroethyl)-1H-benzo[d][1,2,3]triazol-6-yl)pyrrolo[2,1-f][1,2,4]triazin-2-amine]: the IC50 stood at 0.9 nM.

Take `COc1nc(NCC(C)(C)F)nn2ccc(-c3cnc4nccn4c3)c12` [Compound 924, N-(2-Fluoro-2-methylpropyl)-5-(imidazo[1,2-a]pyrimidin-6-yl)-4-methoxypyrrolo[2,1-f][1,2,4]triazin-2-amine]: the IC50 turned out to be 2.1 nM.

For the compound `COCC[C@@H](C)Nc1nc(OC)c2c(-c3cnc4nccn4c3)ccn2n1` [Compound 926, (R)-5-(Imidazo[1,2-a]pyrimidin-6-yl)-4-methoxy-N-(4-methoxybutan-2-yl)pyrrolo[2,1-f][1,2,4]triazin-2-amine], the IC50 is 5.6 nM.

As for `COc1nc(N[C@H](C)C2COC2)nn2ccc(-c3cnc4nccn4c3)c12` [Compound 927, (R)-5-(Imidazo[1,2-a]pyrimidin-6-yl)-4-methoxy-N-(1-(oxetan-3-yl)ethyl)pyrrolo[2,1-f][1,2,4]triazin-2-amine], the IC50 was found to be 1.2 nM.

On to `COc1nc(N[C@@H](C)C2COC2)nn2ccc(-c3cnc4nccn4c3)c12` [Compound 928, (S)-5-(Imidazo[1,2-a]pyrimidin-6-yl)-4-methoxy-N-(1-(oxetan-3-yl)ethyl)pyrrolo[2,1-f][1,2,4]triazin-2-amine], for which the IC50 amounted to 2 nM.

`COc1nc(N[C@@H]2CC[C@@H]2OC)nn2ccc(-c3cnc4nccn4c3)c12` [Compound 929, 5-(Imidazo[1,2-a]pyrimidin-6-yl)-4-methoxy-N-((1R,2S)-2-methoxycyclobutyl)pyrrolo[2,1-f][1,2,4]triazin-2-amine]: the IC50 stood at 19.8 nM.

As for `COc1nc(N[C@@H]2CC[C@H]2OC)nn2ccc(-c3cnc4nccn4c3)c12` [Compound 930, 5-(Imidazo[1,2-a]pyrimidin-6-yl)-4-methoxy-N-((1R,2R)-2-methoxycyclobutyl)pyrrolo[2,1-f][1,2,4]triazin-2-amine], the IC50 is 6.9 nM.

`CCO[C@H]1C[C@@H](Nc2nc(OC)c3c(-c4cnc5nccn5c4)ccn3n2)C1` [Compound 931, N-(cis-3-Ethoxycyclobutyl)-5-(imidazo[1,2-a]pyrimidin-6-yl)-4-methoxypyrrolo[2,1-f][1,2,4]triazin-2-amine]: the IC50 was 1.5 nM.

For `COc1nc(N[C@H]2C[C@@](C)(NC(C)=O)C2)nn2ccc(-c3cnc4nccn4c3)c12` [Compound 934, N-((1s,3s)-3-((5-(Imidazo[1,2-a]pyrimidin-6-yl)-4-methoxypyrrolo[2,1-f][1,2,4]triazin-2-yl)amino)-1-methylcyclobutyl)acetamide], the IC50 was found to be 1.6 nM.

In the case of `COc1nc(N[C@H]2C[C@](C)(NC(C)=O)C2)nn2ccc(-c3cnc4nccn4c3)c12` [Compound 935, N-((1r,3r)-3-((5-(Imidazo[1,2-a]pyrimidin-6-yl)-4-methoxypyrrolo[2,1-f][1,2,4]triazin-2-yl)amino)-1-methylcyclobutyl)acetamide], the IC50 was 1.2 nM.

Take `COc1nc(N[C@@H]2CCC[C@@H]2O)nn2ccc(-c3cnc4nccn4c3)c12` [Compound 942, (1S,2R)-2-((5-(Imidazo[1,2-a]pyrimidin-6-yl)-4-methoxypyrrolo[2,1-f][1,2,4]triazin-2-yl)amino)cyclopentan-1-ol]: the IC50 was 18.9 nM.

Regarding `COc1nc(NC2CCCCC2)nn2ccc(-c3cnc4nccn4c3)c12` [Compound 944, N-Cyclohexyl-5-(imidazo[1,2-a]pyrimidin-6-yl)-4-methoxypyrrolo[2,1-f][1,2,4]triazin-2-amine], the IC50 is 1.5 nM.

For `COc1nc(NC2CCC(C)(C)CC2)nn2ccc(-c3cnc4nccn4c3)c12` [Compound 947, N-(4,4-Dimethylcyclohexyl)-5-(imidazo[1,2-a]pyrimidin-6-yl)-4-methoxypyrrolo[2,1-f][1,2,4]triazin-2-amine], the IC50 came to 2.2 nM.

Regarding `COc1nc(NC2CCC(C)(C#N)CC2)nn2ccc(-c3cnc4nccn4c3)c12` (stereo not drawn) [Compound 948, 4-((5-(Imidazo[1,2-a]pyrimidin-6-yl)-4-methoxypyrrolo[2,1-f][1,2,4]triazin-2-yl)amino)-1-methylcyclohexane-1-carbonitrile], the IC50 turned out to be 0.4 nM.

In the case of `COc1nc(N[C@H]2CC[C@](C)(OC)CC2)nn2ccc(-c3cnc4nccn4c3)c12` [Compound 954, 5-(Imidazo[1,2-a]pyrimidin-6-yl)-4-methoxy-N-((1r,4r)-4-methoxy-4-methylcyclohexyl)pyrrolo[2,1-f][1,2,4]triazin-2-amine], the IC50 amounted to 0.9 nM.

As to `COc1nc(N[C@@H]2CCNCC2(F)F)nn2ccc(-c3cnc4nccn4c3)c12` [Compound 964, (R)—N-(3,3-Difluoropiperidin-4-yl)-5-(imidazo[1,2-a]pyrimidin-6-yl)-4-methoxypyrrolo[2,1-f][1,2,4]triazin-2-amine], the IC50 is 4.3 nM.

Turning to `COc1nc(N[C@@H]2CCN(C3COC3)CC2(F)F)nn2ccc(-c3cnc4nccn4c3)c12` [Compound 968, (R)—N-(3,3-Difluoro-1-(oxetan-3-yl)piperidin-4-yl)-5-(imidazo[1,2-a]pyrimidin-6-yl)-4-methoxypyrrolo[2,1-f][1,2,4]triazin-2-amine], the IC50 was 2.8 nM.

Take `COc1nc(N[C@@H]2CCCOC2)nn2ccc(-c3cnc4nccn4c3)c12` [Compound 975, (R)-5-(Imidazo[1,2-a]pyrimidin-6-yl)-4-methoxy-N-(tetrahydro-2H-pyran-3-yl)pyrrolo[2,1-f][1,2,4]triazin-2-amine]: the IC50 was determined as 7.6 nM.

In the case of `COc1nc(NC2CC3CC3C2)nn2ccc(-c3cnc4nccn4c3)c12` (stereo not drawn) [Compound 976, N-(Bicyclo[3.1.0]hexan-3-yl)-5-(imidazo[1,2-a]pyrimidin-6-yl)-4-methoxypyrrolo[2,1-f][1,2,4]triazin-2-amine], the IC50 stood at 2.5 nM.

Take `COc1nc(NC2CCC3(CC2)CC3)nn2ccc(-c3cnc4nccn4c3)c12` [Compound 977, 5-(Imidazo[1,2-a]pyrimidin-6-yl)-4-methoxy-N-(spiro[2.5]octan-6-yl)pyrrolo[2,1-f][1,2,4]triazin-2-amine]: the IC50 turned out to be 1.8 nM.

As for `COc1nc(NC23CCC(O)(CC2)C3)nn2ccc(-c3cnc4nccn4c3)c12` [Compound 978, 4-((5-(Imidazo[1,2-a]pyrimidin-6-yl)-4-methoxypyrrolo[2,1-f][1,2,4]triazin-2-yl)amino)bicyclo[2.2.1]heptan-1-ol], the IC50 came out at 2.4 nM.

On to `COc1nc(N[C@H]2CC[C@](C)(O)CC2)nn2cc(F)c(-c3cnc4nccn4c3)c12` [Compound 996, (1r,4r)-4-((6-Fluoro-5-(imidazo[1,2-a]pyrimidin-6-yl)-4-methoxypyrrolo[2,1-f][1,2,4]triazin-2-yl)amino)-1-methylcyclohexan-1-ol], for which the IC50 stood at 2.9 nM.

For `CNC(=O)[C@]1(C)C[C@@H](Nc2nc(OC)c3c(-c4ccc5ncccc5c4)ccn3n2)C1` [Compound 1038, trans-3-((4-Methoxy-5-(quinolin-6-yl)pyrrolo[2,1-f][1,2,4]triazin-2-yl)amino)-N,1-dimethylcyclobutane-1-carboxamide], the IC50 came to 0.5 nM.

As to `COc1nc(N[C@H]2C[C@](C)(C(=O)NC3CC3)C2)nn2ccc(-c3ccc4ncccc4c3)c12` [Compound 1039, trans-N-Cyclopropyl-3-((4-methoxy-5-(quinolin-6-yl)pyrrolo[2,1-f][1,2,4]triazin-2-yl)amino)-1-methylcyclobutane-1-carboxamide], the IC50 amounted to 1.7 nM.

Consider `COc1nc(N[C@H]2C[C@](C)(C(=O)NC3(C)CCC3)C2)nn2ccc(-c3ccc4ncccc4c3)c12` [Compound 1040, trans-3-((4-Methoxy-5-(quinolin-6-yl)pyrrolo[2,1-f][1,2,4]triazin-2-yl)amino)-1-methyl-N-(1-methylcyclobutyl)cyclobutane-1-carboxamide], for which the IC50 was 2.7 nM.

Consider `COc1nc(N[C@H]2C[C@](C)(C(=O)NC3CC(F)(F)C3)C2)nn2ccc(-c3ccc4ncccc4c3)c12` [Compound 1041, trans-N-(3,3-Difluorocyclobutyl)-3-((4-methoxy-5-(quinolin-6-yl)pyrrolo[2,1-f][1,2,4]triazin-2-yl)amino)-1-methylcyclobutane-1-carboxamide], for which the IC50 stood at 0.9 nM.

For `COc1nc(N[C@H]2C[C@](C)(C(=O)NC3(C)COC3)C2)nn2ccc(-c3ccc4ncccc4c3)c12` [Compound 1042, trans-3-((4-Methoxy-5-(quinolin-6-yl)pyrrolo[2,1-f][1,2,4]triazin-2-yl)amino)-1-methyl-N-(3-methyloxetan-3-yl)cyclobutane-1-carboxamide], the IC50 amounted to 1.2 nM.

As for `COc1nc(N[C@H]2C[C@@](C)(N(C)C)C2)nn2ccc(-c3ccc4ncccc4c3)c12` [Compound 1043, cis-N3-(4-Methoxy-5-(quinolin-6-yl)pyrrolo[2,1-f][1,2,4]triazin-2-yl)-N1,N1,1-trimethylcyclobutane-1,3-diamine], the IC50 is 2.8 nM.

With `COc1nc(N[C@H]2CCN(CC(C)(C)O)C[C@H]2F)nn2ccc(-c3ccc4ncccc4c3)c12` [Compound 1045, 1-((3R,4S)-3-Fluoro-4-((4-methoxy-5-(quinolin-6-yl)pyrrolo[2,1-f][1,2,4]triazin-2-yl)amino)piperidin-1-yl)-2-methylpropan-2-ol], the IC50 was found to be 4.5 nM.

Take `COc1nc(N[C@H]2CCN(C(C)=O)C[C@H]2F)nn2ccc(-c3ccc4ncccc4c3)c12` [Compound 1047, 1-((3R,4S)-3-Fluoro-4-((4-methoxy-5-(quinolin-6-yl)pyrrolo[2,1-f][1,2,4]triazin-2-yl)amino)piperidin-1-yl)ethan-1-one]: the IC50 turned out to be 2.1 nM.
